Assay results taken from patent publication US20240131098A1, “PHARMACEUTICAL COMPOSITION AND HEALTH FUNCTIONAL FOOD CONTAINING EXTRACT OF FRUITING BODY OF GANODERMA LUCIDUM AS ACTIVE INGREDIENT FOR PREVENTION OR TREATMENT OF THROMBOSIS” (Andong National University Industry-Academic Cooperation …, priority 2022, published 2024).

Columns and labels:
human erythrocytes = tested on: human erythrocytes
Protocol: The hemolytic activity was evaluated according to the previous report (Son Ho-yong, 2014. Korean J. Microbiol. Biotechnol. 42: 285-292). Briefly, 100 μl of human red blood cells washed three times with PBS were placed in a 96-well microplate, 100 μl of sample solution of various concentrations was added thereto, the reaction was performed at 37° C. for 30 minutes, and the reaction solution was centrifuged at 1,500 rpm for 10 minutes, 100 μl of the supernatant was transferred to a new microtiter plate, and the degree of hemoglobin leakage due to hemolysis was measured at 414 nm. DMSO (2%) was used as a solvent control for the sample, and Triton X-100 (1 mg/ml) was used as a control for red blood cell hemolysis. Hemolytic activity was calculated using the following formula:
(%)Hemolysis=[(Abs.S−Abs.C)/(Abs.T−Abs.C)]×100 • Abs.S: Absorbance of sample added group • Abs.C: Absorbance of DMSO added group • Abs.T: Absorbance of Triton X-100 added group

prothrombin = experiment: Prothrombin time (plasma coagulation, prothrombin inhibitory activity); format: biochemical; settings: 1.5 mg/ml; coagulation time of sample added group / DMSO added group
Protocol: (§1) The blood coagulation inhibitory activity of Ganoderma lucidum fruiting body samples was evaluated according to the previously reported methods (Sohn et al., 2004. Kor. J. Pharmacogn 35. 52-61; Kwon et al., 2004. J Life Science, 14. 509-513; Ryu et al. 2010. J. Life Science, 20. 922-928). For this, thrombin time, prothrombin time and aPT time were measured. For plasma, commercially available control plasma (MD Pacific Technology Co., Ltd, Huayuan Industrial Area, China) was used, and thrombin time, prothrombin time, and aPT time measurements were performed in a manner described below.
70 μl of standard plasma (MD Pacific Co., China) and 10 μl of sample solutions of various concentrations were added to the tube of Amelung coagulometer KC-1A (Japan) and warmed at 37° C. for 3 minutes, followed by addition of 130 μl of PT reagent. After the addition of the PT reagent, the time until coagulation was measured. The time was expressed with the average value of the results of three repeated experiments. As a control, aspirin (Sigma Co., USA) was used, and as a solvent control, DMSO was used instead of the sample. In the case of DMSO, the coagulation time was 18.1 seconds. The prothrombin inhibitory activity was expressed as the value obtained by dividing the coagulation time upon addition of the sample by the coagulation time of the solvent control. […]

thrombin = molecular target: T1, thrombin (Homo sapiens, UniProt P00734); experiment: Thrombin time (plasma coagulation, thrombin inhibitory activity); format: biochemical; settings: 1.5 mg/ml; coagulation time of sample added group / DMSO added group
T1 construct: 50 μl of 0.5 U thrombin (Sigma Co., USA); purchased Sigma Co., USA
Protocol: as §1
At 37° C., 50 μl of 0.5 U thrombin (Sigma Co., USA), 50 μl of 20 mM CaCl2, and 10 μl of sample extracts of various concentrations were mixed in the tube of Amelung coagulometer KC-1 A (Japan), and reacted for 2 minutes, followed by addition of 100 μl of plasma. After the addition of plasma, the time until plasma coagulation was measured. As a control, aspirin (Sigma Co., USA) was used, and as a solvent control, DMSO was used instead of the sample. […]
The thrombin inhibitory activity was expressed with the average of the results of three or more repeated experiments, and the thrombin inhibitory activity was expressed as the value obtained by dividing the coagulation time upon addition of the sample by the coagulation time upon addition of the solvent control. […]

blood coagulation factor = experiment: aPTT (activated partial thromboplastin time), blood coagulation factor inhibitory activity; format: biochemical; settings: 1.5 mg/ml; coagulation time of sample added group / DMSO added group
Protocol: as §1
aPTT (Activated Partial Thromboplastin Time)
100 μl of plasma and 10 μl of sample extracts of various concentrations were added to the tube of Amelung coagulometer KC-1A (Japan) and warmed at 37° C. for 3 minutes. 50 μl of aPTT reagent (Sigma, ALEXIN™) was added thereto and incubated at 37° C. for 3 minutes. 50 μl of CaCl2 (35 mM) was added, and the time until plasma coagulation was measured. As a solvent control, DMSO was used instead of the sample, and in this case, the coagulation time was 55.1 seconds. The aPTT was expressed with the average of the results of three or more repeated experiments, and the blood coagulation factor inhibitory activity was expressed as the value obtained by dividing the aPTT upon addition of the same by the aPTT time upon addition of the solvent control. […]

| Human erythrocyte coagulation activity(%) (human erythrocytes) | Blood coagulation inhibitory activity, Thrombin time (thrombin) | Compound | Blood coagulation inhibitory activity, Prothrombin time (prothrombin) | Blood coagulation inhibitory activity, aPT time (blood coagulation factor) |
| --- | --- | --- | --- | --- |
| 0.4 ± 0.6% |  | Triton X-100 |  |  |
|  | 1.45 ± 0.02 | CC(=O)Oc1ccccc1C(=O)O [Aspirin, aspirin] | 1.40 ± 0.00 | 1.57 ± 0.11 |
